Measured values: patent publication US9174998B2, “(6S,9aS)-N-benzyl-6-[(4-hydroxyphenyl)methyl]-4,7-dioxo-8-({6-[3-(piperazin-1-yl)azetidin-1-yl]pyridin-2-yl}methyl)-2-(prop-2-en-1-yl)-octahydro-1H-pyrazino[2,1-c][1,2,4]triazine-1-carboxamide compound” (Eisai R&D Management Co., Ltd., priority 2013, dated 2015)
In brackets after ≈: the same amount, converted by molar mass. Like-named read-outs stand apart in the source and are kept apart here.

Experiments:
Wnt signal = experiment: Detection of Wnt signal (TOPglow luciferase reporter, LiCl-stimulated); assay type: cell-based; conditions: Homo sapiens; HEK293 clone carrying pNeo-TOP reporter; LiCl stimulation; luciferase luminescence; read-out: Test Example 1 IC50 (concentration required for inhibiting the Wnt signal activity by 50%)
Description: pcDNA3.1(+) (invitrogen) was cleaved with restriction enzymes BglII and NotI, and an adapter BEHKS having a sequence shown below (containing restriction enzyme sites BglII, EcoRI, HindIII, KpnI, SacI and NotI) was inserted thereinto, thereby producing a plasmid pNeo-HKS.
Subsequently, a fragment having a length of about 2700 bp (containing a Wnt-responsive sequence and a luciferase gene), which was prepared by cleaving from a TOPglow plasmid contained in a TOPglow/FOPglow TCF Reporter Kit (upstate Catalog#17-366) with restriction enzymes HindIII and KpnI, was inserted between HindIII and KpnI in pNeo-HKS, thereby producing a plasmid pNeo-TOP. The plasmid pNeo-TOP was introduced into human fetus-derived renal cell strain HEK293, then a compound was selected using G418, and then a cell clone strain was established by a limiting dilution method. The cell clone strain was subjected to a Wnt signal detection test.
The cell clone strain was subcultured in a D-MEM glucose-rich culture medium (Wako Pure Chemical Industries, Ltd.) containing 10% FBS, and cells in a growth phase were used in the test. Cells were collected using trypsin-EDTA, the number of the cells was counted, and then the cells were suspended in a D-MEM glucose-rich culture medium containing 10% FBS so that the number of cells became 2×10^5 cells/mL. The cell suspension was added to a 96-well cell culture plate (Greiner Bio-One Co., Ltd., product number: 655083) in an amount of 0.1 mL/well and then cultured overnight in a 5% CO2 incubator (37° C.). After the culturing, a substance to be tested, which was dissolved in DMSO, was diluted with a D-MEM glucose-rich culture medium containing 10% of FBS and 80 mM of LiCl to produce a sample solution. The sample solution (0.1 mL) was added to each well and then cultured in a 5% CO2 incubator (37° C.) […]. Six hours after the addition of the sample solution, a supernatant was removed from each well, and then 50 μL of Bright-Glo™ Luciferase substrate (Promega, product number: E2620) was added thereto. The plate was put on a plate mixer for several seconds, and then the emission of light from each well was measured using a EnVision™ Multilabel plate reader (PerkinElmer Co., Ltd.). The Wnt signal activation rate (%) of each well was determined, and a concentration (IC50) which is required for inhibiting the Wnt signal activity of a substance of interest by 50% was calculated, wherein the luminosity of a well to which a sample solution was not added and LiCl was added was defined as a 100% Wnt signal activity and the luminosity of a well to which either of a sample solution or LiCl was not added was defined as a 0% Wnt signal activity.

[1] = Evaluation of metabolic stability; assay type: in vitro ADME, human; conditions: 0.2 mg/mL HLM, 0.1 μM test substance, 15 minutes at 37° C., with vs without NADPH production
Description: A test substance was dissolved in DMSO so that the concentration of the resultant solution became 20 mM, and the solution was diluted with DMSO so that the concentration of the resultant solution became 1 mM. The metabolic stability of the test substance was evaluated using a human liver microsome (HLM) in which human liver was pooled. An assay buffer solution contained 0.2 mg/mL of HLM, a 0.1 M of phosphate potassium buffer solution (pH 7.4), 0.1 mM of EDTA, 0.33 mM of NADP+, 8 mM of glucose-6-phosphate, 0.1 U/mL of glucose-6-phosphate dehydrogenase, 6 mM of MgCl2, 0.1 μM of a test substance (final concentration in DMSO: 0.01%) in 0.15 mL of the final incubation volume. Fifteen minutes after the initiation of the reaction at 37° C., 0.15 mL of a acetonitrile/methanol mixed solution (7:3, by volume) was added to the solution to terminate the reaction. After centrifugation, the resultant supernatant was analyzed by LC-MSMS, peak areas were compared under the presence or absence of the production of NADPH, and the residual ratio of the test substance was calculated.

[2] = PAMPA test (parallel artificial membrane permeability assay); assay type: in vitro ADME; conditions: phosphate buffer pH 6.8, about 200 μM, about 5 hours, room temperature, read-out: Test Example 4 membrane permeation coefficient Pe
Description: A test solution (see below) was stirred while shaking at room temperature for about 5 hours using a 96-well PAMPA plate (BD Biosciences) in which a lipid had been precoated onto a polyvinylidene fluoride (PVDF) film to evaluate the membrane permeation coefficient Pe (cm/s) of each compound dissolved in the test solution (concentration: about 200 μM) upon the transport of the compound from a donor side to an acceptor side through a lipid membrane. The Pe value was calculated in accordance with equations 1 and 2, and the concentration of the compound on the donor side and the acceptor side was measured by a HPLC-UV method. In 0.3 mL of the test solution on the donor side is contained about 1% (v/v) of DMSO, since 3 μL of a DMSO solution containing the compound at a concentration of 20 mM was added to the test solution.
Test solution: a phosphate buffer solution having a pH value of 6.8 (90 mM of phosphate, 48 mM of NaCl, 5.4 mM of KCl)
Conditions for stirring: a multishaker MS-300 (AS ONE Corporation), 350 rpm
[formula] CD(t): compound concentration in donor well at time t CA(t): compound concentration in acceptor well at time t VD: donor well volume (0.3 mL) VA: acceptor well volume (0.2 mL) A: filter area (0.3 cm^2)

[3] = Evaluation of solubility (DMSO stock into PBS, HPLC-UV); assay type: physicochemical; conditions: Dulbecco's phosphate-buffered saline pH 7, room temperature, about 15 minutes shaking, values greater than 200 μM regarded as 200 μM, read-out: Test Example 3 solubility
Description: To 0.25 mL of a test solution a mentioned below was added 2.5 μL of a DMSO solution having a compound concentration of 20 mM. The resultant solution was shaken at room temperature for about 15 minutes (the conditions for the shaking are mentioned below). Subsequently, a supernatant was collected by a suction filtration under a reduced pressure. A DMSO solution having a compound concentration of 200 μM was used as a standard solution, and the concentration of a compound in a filtrate which was quantified by a HPLC-UV method was employed as a solubility (rounded off to the whole number). In this evaluation, since a value 200 μM became the upper limit operationally, all of quantification values greater than 200 μM were regarded as 200 μM.
Test solution: GIBCO (registered trade name) Dulbecco's phosphate-buffered saline (pH 7, Life Technologies Corporation)
Conditions for shaking: a microplate shaker N-704 (Nissinrika Corporation), speed 6

[4] = aqueous buffer, kinetic from dmso stock

Structure (SMILES) | IC50 (Wnt signal) [µM] | Test Example 2 residual ratio of the test substance [1] [%] | Papp [2] [×10⁻⁶ cm/s] | solubility [3, 4] [µM] | solubility [3] [µM]
C=CCN1CC(=O)N2[C@@H](Cc3ccc(O)cc3)C(=O)N(Cc3cccnc3N3CCC(N4CCCC4)CC3)C[C@@H]2N1C(=O)NCc1ccccc1 [Comparative Example 1, (6S,9aS)-N-Benzyl-6-(4-hydroxybenzyl)-4,7-dioxo-8-((2-(4-(pyrrolidin-1-yl)piperidin-1-yl)pyridin-3-yl)methyl)-2-(prop-2-en-1-yl)-octahydro-1H-pyrazino[2,1-c][1,2,4]triazine-1-carboxamide, reference compound] | 23.2 | 52.9 | 1.34 | 97 (≈ 67.2 µg/mL) | –
C[C@H]1C2N(C(=O)CN(C)N2C(=O)NCc2ccccc2)[C@@H](Cc2ccc(O)cc2)C(=O)N1Cc1cccc2cccnc12 (stereo partly drawn) [Comparative Example 2, (6S,9S)-N-Benzyl-6-(4-hydroxybenzyl)-2,9-dimethyl-4,7-dioxo-8-(quinolin-8-ylmethyl)octahydro-1H-pyrazino[2,1-c][1,2,4]triazine-1-carboxamide, reference compound] | 0.33 | 0.6 | 0.85 | 122 (≈ 70.6 µg/mL) | –
C=CCN1CC(=O)N2[C@@H](Cc3ccc(O)cc3)C(=O)N(Cc3cccc(N4CC(N5CCN(CC)CC5)C4)n3)C[C@@H]2N1C(=O)NCc1ccccc1 [Example 2, (6S,9aS)-N-Benzyl-8-((6-(3-(4-ethylpiperazin-1-yl)azetidin-1-yl)pyridin-2-yl)methyl)-6-((4-hydroxyphenyl)methyl)-4,7-dioxo-2-(prop-2-en-1-yl)-octahydro-1H-pyrazino[2,1-c][1,2,4]triazine-1-carboxamide] | 0.29 | 58 | 1.32 | – | 200 (≈ 142 µg/mL)
C=CCN1CC(=O)N2[C@@H](Cc3ccc(O)cc3F)C(=O)N(Cc3cccc(N4CC(N5CCN(C)CC5)C4)n3)C[C@@H]2N1C(=O)NCc1ccccc1 [Example 3, (6S,9aS)-N-Benzyl-6-((2-fluoro-4-hydroxyphenyl)methyl)-8-((6-(3-(4-methylpiperazin-1-yl)azetidin-1-yl)pyridin-2-yl)methyl)-4,7-dioxo-2-(prop-2-en-1-yl)-octahydro-1H-pyrazino[2,1-c][1,2,4]triazine-1-carboxamide] | 0.15 | 54 | 1.33 | – | 200 (≈ 142 µg/mL)
C=CCN1CC(=O)N2[C@@H](Cc3ccc(O)cc3F)C(=O)N(Cc3cccc(N4CC(N5CCN(C)[C@@H](C)C5)C4)n3)C[C@@H]2N1C(=O)NCc1ccccc1 [Example 4, (6S,9aS)-N-Benzyl-8-((6-(3-((3S)-3,4-dimethylpiperazin-1-yl)azetidin-1-yl)pyridin-2-yl)methyl)-6-((2-fluoro-4-hydroxyphenyl)methyl)-4,7-dioxo-2-(prop-2-en-1-yl)-octahydro-1H-pyrazino[2,1-c][1,2,4]triazine-1-carboxamide] | 0.06 | 44 | 2.03 | 199 (≈ 144 µg/mL) | –
C=CCN1CC(=O)N2[C@@H](Cc3ccc(O)cc3F)C(=O)N(Cc3cccc(N4CC(N5CCN(C)[C@H](C)C5)C4)n3)C[C@@H]2N1C(=O)NCc1ccccc1 [Example 5, (6S,9aS)-N-Benzyl-8-((6-(3-((3R)-3,4-dimethylpiperazin-1-yl)azetidin-1-yl)pyridin-2-yl)methyl)-6-((2-fluoro-4-hydroxyphenyl)methyl)-4,7-dioxo-2-(prop-2-en-1-yl)-octahydro-1H-pyrazino[2,1-c][1,2,4]triazine-1-carboxamide] | 0.082 | 39 | 1.18 | – | 200 (≈ 145 µg/mL)
C=CCN1CC(=O)N2[C@@H](Cc3ccc(O)cc3)C(=O)N(Cc3cccc(N4CC(N5CCN(C)C[C@@H]5C)C4)n3)C[C@@H]2N1C(=O)NCc1ccccc1 [Example 6, (6S,9aS)-N-Benzyl-8-((6-(3-((2S)-2,4-dimethylpiperazin-1-yl)azetidin-1-yl)pyridin-2-yl)methyl)-6-((4-hydroxyphenyl)methyl)-4,7-dioxo-2-(prop-2-en-1-yl)-octahydro-1H-pyrazino[2,1-c][1,2,4]triazine-1-carboxamide] | 0.25 | 55 | 1.27 | 195 (≈ 138 µg/mL) | –
C=CCN1CC(=O)N2[C@@H](Cc3ccc(O)cc3)C(=O)N(Cc3ccc(F)c(N4CC(N5CCN(CC)CC5)C4)n3)C[C@@H]2N1C(=O)NCc1ccccc1 [Example 7, (6S,9aS)-N-Benzyl-8-((6-(3-(4-ethylpiperazin-1-yl)azetidin-1-yl)-5-fluoropyridin-2-yl)methyl)-6-((4-hydroxyphenyl)methyl)-4,7-dioxo-2-(prop-2-en-1-yl)-octahydro-1H-pyrazino[2,1-c][1,2,4]triazine-1-carboxamide] | 0.095 | 29 | 2.77 | 189 (≈ 137 µg/mL) | –
C=CCN1CC(=O)N2[C@@H](Cc3ccc(O)cc3)C(=O)N(Cc3cccc(N4CC(N5CCN(C)CC5)C4)n3)C[C@@H]2N1C(=O)NCc1ccccc1 [Example 29, (6S,9aS)-N-Benzyl-6-((4-hydroxyphenyl)methyl)-8-((6-(3-(4-methylpiperazin-1-yl)azetidin-1-yl)pyridin-2-yl)methyl)-4,7-dioxo-2-(prop-2-en-1-yl)-octahydro-1H-pyrazino[2,1-c][1,2,4]triazine-1-carboxamide] | 0.47 | 63 | – | – | 200 (≈ 139 µg/mL)
